According to patent US9815783B2, “(3-alkylthio)propenoic acid-derived compounds and their application in cosmetics” (EXSYMOL, priority 2015, dated 2017):
One block for each molecule: values may come before it.

Tests used:
[1] = Antioxidant potential against squalene hydroperoxidation by singlet oxygen (quenching, methylene blue, UV-B, HPLC); details: UV-B radiation dose 1.42 J·cm−2, methylene blue photosensitizer
Description: Experimentally, a squalene solution at 5 g/100 mL, a methylene blue solution at 5 mM and a solution of the compound according to the invention (from 1 to 5 mM) or a control compound (methylthiopropylamido acetyl methionine-AMDM) were prepared after being dissolved in 100 mL of methanol (HPLC grade). Then in a UV-B oven, each solution was poured in equal parts into an uncovered Petri dish, in order to be submitted to a radiation dose (1D) of 1.42 J·cm^−2. At the end of the radiation, volumes of the solutions were recovered, adjusted to 20 mL with methanol prior to analysis by HPLC assay and after removal of methylene blue. The “quenching,” rate was then deduced from the following equation: [formula]

[2] = Photo-isomerization of (Z)-isomer conjugates to E-isomer under UV-B irradiation (HPLC); assay type: physicochemical; details: 2.5 mM in methanol with squalene; UV-B irradiation dose 1 J·cm−2; formation of E-isomer by HPLC
Description: Test 4: Evidence of the Ability of the (Z)-Isomer Conjugates of Formula (I) to Absorb Ultraviolet Radiation by Photo-Isomerization
Principle: the aim is to check whether the conjugates according to the invention are able to isomerize under UV-B irradiation.
Experimentally, 2 ml of a squalene solution at 5 g/100 mL and 2 mL of a solution of compound according to the invention at the concentration of 25 mM in methanol were introduced into a 20 mL measuring cylinder, and then supplemented with methanol up to 20 mL. The preparation thus obtained was poured into a Petri dish onto which an irradiation dose of 1 J·cm^−2 was applied in a UV-B oven. At the end of the irradiation, the solutions were collected and analyzed by HPLC dosage. Volumes were previously standardized with methanol.
Chromatographic profiles were thus obtained, and the formation of the E-isomer was investigated. An isomerization rate was then determined by comparison with a control profile.

HaCaT keratinocytes [3] = experiment: Viability of HaCaT keratinocytes exposed to UV-B cytotoxic doses (MTT method); assay type: cell-based; details: Homo sapiens, light or radiation study, UV-B 100 mJ/cm2, MTT after 24 hours, irradiated untreated control 46, non-irradiated 100, read-out: % cell viability; for viability at 500 µM: 0.5 mM in PBS; for viability at 100 µM: 0.1 mM in PBS; for viability at 250 µM: 0.25 mM in PBS
Description: Test 3: Evidence of the Ability of the (Z)-Isomer Conjugates of Formula (I) to Make Viable a Keratinocyte Cell Line Exposed to UV-B Cytotoxic Doses
Experimentally, the study was also carried out on a cell line of immortalized keratinocytes “HaCaT” seeded in 24-well plates at a rate of 8000 cells per square centimeter, namely 15200 cells per welkin 0.5 ml culture medium (with 10% foetal calf serum).
500 μl of the conjugate according to the invention were added in each well at a concentration from 0.05 to 0.5 mM in PBS. The cells in the presence of active ingredient were then exposed to ultraviolet radiations (UV-B) at the moderate dose of 100 mJ·cm−^2, and then placed into a medium without active ingredient for 24 hours. After removal of the medium, the HaCaT keratinocytes cell viability was also measured using the “MTT method” (solution at 250 μg/ml) and by spectrophotometry (absorbance at 570 nm). Gathering the average values obtained from three independent experiments, the results are presented in table 3 below, in comparison with those obtained for two controls, the non-irradiated cells and the non-treated irradiated cells with the conjugates according to the invention.

HaCaT keratinocytes [4] = experiment: Cytotoxic potential of sulfoxide and sulfone oxidation by-products on HaCaT keratinocytes (MTT method); assay type: cell-based; details: 2.5 mM in PBS, average of three independent experiments, control = 100
Description: Test 2: Evidence of the Absence of Cytotoxic Potential of the Oxidation by-Products of the (Z)-Isomer Conjugates of Formula (I)
Experimentally, the test was carried out on a cell line of immortalized keratinocytes “HaCaT” maintained by subculture in a complete culture medium “DMEM” (with 10% foetal calf serum) in a humid atmosphere at 37° C. and 5% CO2. HaCaT cells were seeded in 24-well plates at the rate of 1·10^5 cells per well.
Sulfoxide and sulfone derivatives of (Z)-isomer conjugates of formula (I) were synthesized after a stoichiometric exposure to hydrogen peroxide (H2O2), then purified and finally quantified.
500 μl of sulfoxide and sulfone oxidation by-products from the conjugates according to the invention were added in each well, at the concentration of 2.5 mM in PBS. After removal of the medium, the HaCaT keratinocytes cell viability was measured using the “MTT method” (MTT standing for (4,5-dimethylthiazol-2-yl)-2,5-diphenyltetrazolium bromide) (solution at 500 μg/ml) and by spectrophotometry (absorbance at 550 nm). Expressed as the average values obtained from three independent experiments, the results are gathered in table 2 below, in comparison with those obtained for the non-irradiated cells.

[5] = Opposition to trans-urocanic acid photo-induced isomerization (HPLC); details: compound 5 mM, irradiation dose 31 mJ·cm−2
Description: Test 5: Evidence of the Ability of the (Z)-Isomer Conjugates of Formula (I) to Oppose the Trans-Urocanic Acid Photo-Induced Isomerization
Principle: the aim is to check whether the conjugates according to the invention are capable of opposing the trans-urocanic acid photo-isomerization.
Experimentally, the study was carried out almost identically as in tests 1 and 4 above. Beforehand, it was checked that under defined experimental conditions, trans-urocanic acid generates a significant amount of cis-urocanic acid that can be measured by HPLC analysis. The irradiation dose (1D) was 31 mJ·cm^−2 for a compound concentration of 5 mM.

Structure (SMILES): CS/C=C/C(=O)NCCc1ccc(O)cc1 [(E)-N-(4-hydroxyphenethyl)-3-(methylthio)propenamide]
- % squalene protection ([1]; compound 1 mM in methanol): 30%

- % isomerization [2]: 60%
Structure (SMILES): CCNC(=O)/C=C\SC [(Z)-N-ethyl-3-(methylthio)propenamide]
- viability at 500 µM (HaCaT keratinocytes [3]): 86%

Structure (SMILES): CS(=O)(=S)/C=C\C(=O)NCCc1ccc(O)cc1 (stereo not shown) [(Z)-N-(4-hydroxyphenethyl)-3-(methylthiosulfonyl)propenamide]
- % cell viability (HaCaT keratinocytes [4]): 95.0%

Structure (SMILES): CSCCCNC(=O)C(CCSC)NC(C)=O (stereo not shown) [AMDM, methylthiopropylamido acetyl methionine, reference compound]
- % squalene protection ([1]; compound 1 mM in methanol): 3%
- % squalene protection ([1]; compound 5 mM in methanol): 15%

Structure (SMILES): CS/C=C/C(=O)NCCO [(E)-N-(2-hydroxyethyl)-3-(methylthio)propenamide]
- % squalene protection ([1]; compound 1 mM in methanol): 71%

- % isomerization [2]: 62%
Structure (SMILES): CS/C=C\C(=O)NCCO [(Z)-N-(2-hydroxyethyl)-3-(methylthio)propenamide]
- % squalene protection ([1]; compound 1 mM in methanol): 24%
- % squalene protection ([1]; compound 5 mM in methanol): 25%
- % inhibition of trans-urocanic acid photo-isomerization [5]: 75%
- viability at 100 µM (HaCaT keratinocytes [3]): 64%
- viability at 250 µM (HaCaT keratinocytes [3]): 85%
- viability at 500 µM (HaCaT keratinocytes [3]): 94%

- % isomerization [2]: 95%
Structure (SMILES): CS/C=C\C(=O)NCCc1ccc(O)cc1 [(Z)-N-(4-hydroxyphenethyl)-3-(methylthio)propenamide]
- % squalene protection ([1]; compound 1 mM in methanol): 35%
- % squalene protection ([1]; compound 5 mM in methanol): 44%
- % inhibition of trans-urocanic acid photo-isomerization [5]: 78%
- viability at 100 µM (HaCaT keratinocytes [3]): 70%
- viability at 250 µM (HaCaT keratinocytes [3]): 93%
- viability at 500 µM (HaCaT keratinocytes [3]): 100%

Structure (SMILES): CS(=O)(=S)/C=C\C(=O)NCCO (stereo not shown) [(Z)-N-(2-hydroxyethyl)-3-(methylthiosulfonyl)propenamide]
- % cell viability (HaCaT keratinocytes [4]): 93.1%
